This is an account of results in patent US9220669B2, “Resveratrol ferulate compounds, compositions containing the compounds, and methods of using the same” (ELC Management LLC, priority 2007, dated 2015).

This assay has as its system endogenous reactive oxygen species (ROS), primarily hydrogen peroxide (H2O2), in normal human epidermal keratinocyte (NHEK) cell cultures. Briefly: Endogenous reactive oxygen species (ROS) level in NHEK cell cultures, dichlorodihydrofluorescein diacetate fluorescence. It counts as cell-based. As to conditions: overnight incubation, fluorescence at 5.5 hour time point, NHEK cells. The protocol: Specifically, NHEK cells were cultured and plated, followed by treatment with Resveratrol Ferulates at concentrations of about 10 μM, 25 μM, and 50 μM. As comparative examples, some NHEK cells were separated treated with resveratrol at a concentration of about 25 μM. Further as control examples, some NHEK cells were maintained without treatment with either Resveratrol Ferulates or resveratrol. Four samples of NHEK cells were provided for each treatment. After overnight incubation of the cell cultures, dichlorodihydrofluorescein diacetate was added thereinto. Dichlorodihydrofluorescein diacetate is a useful fluorogenic reagent for detecting reactive oxygen species in cells. Upon oxidation by the reactive oxygen species, dichlorodihydrofluorescein diacetate becomes the highly green fluorescent dichlorofluorescein, which can be readily detected by fluorescene spectroscopy. For example, a Gemini EM microplate spectrofluorometer commercially available from Molecular Devices at Sunnyvale, Calif. was employed to measure the fluorescence (Ex450, Em525) of the cell cultures at the 5.5 hour time point, which was used as an indication of the amount of reactive oxygen species (primarily H2O2) in the cells.

For the molecule `Oc1ccc(C=Cc2cc(O)cc(O)c2)cc1` [resveratrol, 3,5,4′-trihydroxystilbene], the “average reduction in ROS level in comparison with the control samples” value was “about 62.0%” (10 μM) and “about 69.5%” (25 μM).
